ChEMBL document CHEMBL4342455, “Benwamycins A-G, Trialkyl-Substituted Benzene Derivatives from a Soil-Derived Streptomyces” (J Nat Prod, 2020)
Active and inactive are the calls of the source. The calls are words filed in the database; no cut-off is given here.

system: T-cell; assay: Immunosuppressive activity in anti-CD3/anti-CD28-stimulated human T cells assessed as reduction in cell viability after 96 hrs by CFSE dye based flow cytometric analysis; type: functional

SMILES | IC50 [µM] | Activity
Cc1ccc([C@H](C)[C@@H](O)[C@H](C)[C@H](C)O)c(/C=C/CO)c1 | 14.3 | 
CC(=O)[C@@H](C)[C@H](O)[C@@H](C)c1ccc(C)cc1/C=C/CO |  | inactive
CCC1=CC(=O)[C@@H](C)[C@@H]([C@@H](C)c2ccc(CO)cc2/C=C/CO)O1 |  | inactive
CCC(=O)O[C@@H]([C@H](C)C(C)=O)[C@@H](C)c1ccc(CO)cc1/C=C/CO |  | inactive
C[C@@H]([C@H](O)[C@@H](C)c1ccc(CO)cc1/C=C/CO)[C@H](C)O |  | inactive
CC(=O)OCc1ccc([C@H](C)[C@@H](O)[C@H](C)C(C)=O)c(/C=C/CO)c1 |  | inactive
CC(=O)[C@@H](C)[C@H](O)[C@@H](C)c1ccc(C)cc1/C=C/C(=O)O |  | inactive
CC(=O)[C@@H](C)[C@H](O)[C@@H](C)c1ccc(CO)cc1/C=C/CO |  | inactive
CCC1=CC(=O)[C@@H](C)[C@@H]([C@@H](C)c2ccc(C)cc2/C=C/CO)O1 | 12.5 | 
CCC(=O)O[C@@H]([C@H](C)C(C)=O)[C@@H](C)c1ccc(C)cc1/C=C/CO |  | inactive

system: not listed separately; assay: Cytotoxicity against human naive T cells assessed as reduction in cell viability after 96 hrs by flow cytometric analysis; type: cell-based

SMILES | CC50 at 96 h [µM]
Cc1ccc([C@H](C)[C@@H](O)[C@H](C)[C@H](C)O)c(/C=C/CO)c1 | > 80
CCC1=CC(=O)[C@@H](C)[C@@H]([C@@H](C)c2ccc(C)cc2/C=C/CO)O1 | > 80

system: 3T3-L1; assay: Induction of glucose uptake in mature mouse 3T3L1 adipocytes assessed as [3H]2-deoxy-D-glucose uptake at 25 uM preincubated for 24 hrs followed by [3H]2-deoxy-D-glucose additon and measured after 10 mins by scintillation counting method relative to control; type: functional

SMILES | Activity
Cc1ccc([C@H](C)[C@@H](O)[C@H](C)[C@H](C)O)c(/C=C/CO)c1 | inactive
CC(=O)[C@@H](C)[C@H](O)[C@@H](C)c1ccc(C)cc1/C=C/CO | inactive
CCC1=CC(=O)[C@@H](C)[C@@H]([C@@H](C)c2ccc(CO)cc2/C=C/CO)O1 | inactive
CCC(=O)O[C@@H]([C@H](C)C(C)=O)[C@@H](C)c1ccc(CO)cc1/C=C/CO | inactive
C[C@@H]([C@H](O)[C@@H](C)c1ccc(CO)cc1/C=C/CO)[C@H](C)O | inactive
CC(=O)OCc1ccc([C@H](C)[C@@H](O)[C@H](C)C(C)=O)c(/C=C/CO)c1 | 28.4%
CC(=O)[C@@H](C)[C@H](O)[C@@H](C)c1ccc(C)cc1/C=C/C(=O)O | inactive
CC(=O)[C@@H](C)[C@H](O)[C@@H](C)c1ccc(CO)cc1/C=C/CO | inactive
CCC1=CC(=O)[C@@H](C)[C@@H]([C@@H](C)c2ccc(C)cc2/C=C/CO)O1 | 21.1%
CCC(=O)O[C@@H]([C@H](C)C(C)=O)[C@@H](C)c1ccc(C)cc1/C=C/CO | inactive

system: 3T3-L1; assay: Induction of glucose uptake in mature mouse 3T3L1 adipocytes assessed as [3H]2-deoxy-D-glucose uptake at 10 uM preincubated for 24 hrs followed by [3H]2-deoxy-D-glucose additon and measured after 10 mins by scintillation counting method relative to control; type: functional

SMILES | Activity [%]
COc1ccc2cc3[n+](cc2c1OC)CCc1cc2c(cc1-3)OCO2 [BERBERINE] | 25.5
